Test results from paper doi:10.1101/2023.05.23.541938v1, “Exploring the Chain Release Mechanism from an Atypical Apicomplexan Polyketide Synthase” (biorxiv, 2023).

Experiments:
[1] = target: T1, TgTR (TgPKS2 thioester reductase domain) (Toxoplasma gondii, UniProt Z9O203Q0F3); test: isothermal titration calorimetry; assay type: binding; details: 25 mM Tris-HCl pH 7.6, 25 mM NaCl, N fixed at 1
T1 construct: isolated C-terminal thioester reductase (TR) domain of TgPKS2; E. coli codon optimized, expressed in E. coli BL21(DE3) with GroES/EL-TF chaperones

[2] = target: T1, TgTR (TgPKS2 thioester reductase domain); test: thermal shift assay (SYPRO orange); assay type: binding; details: 1 mM compound, 3 µM TgTR, 10 mM Tris-HCl pH 8.0, 50 mM NaCl, 5% glycerol
[3] = tested on: TgTR (TgPKS2 thioester reductase domain); details: saturating octanal (2.5 mM) and NADH; N147T in domain numbering

SMILES | Kd ([1]; no other ligand) [µM] | Tm shift [2] | Kd ([1]; excess NADH (1 mM)) [µM] | NADH fluorescence consumption assay, single-point relative rate [3]
NC(=O)C1=CN([C@@H]2O[C@H](COP(=O)(O)OP(=O)(O)OC[C@H]3O[C@@H](n4cnc5c(N)ncnc54)[C@H](O)[C@@H]3O)[C@@H](O)[C@H]2O)C=CC1 [NADH] | 7.64 ± 0.59 | NADH, octanoyl-CoA, and octanal increased the TgTR Tm compared to the DMSO control | – | –
CCCCCCCC=O [octanal] | – | NADH, octanoyl-CoA, and octanal increased the TgTR Tm compared to the DMSO control | 146 ± 31 | no significant change was observed with octanal
CCCCCCCC(=O)SCCNC(=O)CCNC(=O)[C@H](O)C(C)(C)COP(=O)(O)OP(=O)(O)OC[C@H]1O[C@@H](n2cnc3c(N)ncnc32)[C@H](O)[C@@H]1OP(=O)(O)O [octanoyl-CoA] | – | NADH, octanoyl-CoA, and octanal increased the TgTR Tm compared to the DMSO control | 89.6 ± 3.9 | –
